The text below walks through data of US7407973B2, “Use of pirfenidone in therapeutic regimens” (Intermune, Inc., priority 2003, dated 2008).

Molecules are shown by their SMILES.

The test system of the experiment is other kinases tested. Kind of experiment: Human kinase panel, overall conclusion: other kinases. The experiment is classed as biochemical. On the procedure: Enzymatic activity of various human kinases was assayed in the presence and the absence of pirfenidone. Percent enzyme activity of various human enzymes in the presence of substrate and pirfenidone are shown in FIGS. 1-5, and in Table 2, below, where “percent enzyme activity” is the percent of the control activity (e.g., in the absence of pirfenidone): […]

Take `Cc1ccc(=O)n(-c2ccccc2)c1` [pirfenidone, 5-methyl-1-phenyl-2-(1H)-pyridone]: the “Inhibition of other kinases tested (conclusion from Table 2 data)” value was “does not substantially inhibit”.
